Key:
[1] = IV pharmacokinetics of Compound 1 and its glucuronides in rats; assay type: in vivo, rat
Description: (§1) Two separate IV studies were carried out using two separate lots of animals. IV-A was run on the same lot of animals as the oral gavage study and IV-B was run on the same lot of animals as the intraduodenal and intra-colonic studies.
For the IV dosing solutions (IV), Compound 1 was prepared by addition to DI water containing 20% hydroxypropyl β-cyclodextran by weight.
(§2) For the IV and oral gavage dosing (sampling at jugular and portal vein), young adult male Sprague Dawley rats weighing 250-400 g were purchased from Hilltop Lab Animals Inc. All rat experiments were conducted under approved animal protocols. The rats for the oral gavage dosing were catheterized at Hilltop Lab Animals Inc, had two chronic catheters for sampling: jugular and portal, were housed in cages of Culex™ Automated Blood Sampler (ABS) and blood samples were collected simultaneously via both cannula and were controlled by the Culex™ ABS control software.
(§3) A quantitative method for determining the amount of (6,7-dimethoxy-2,4-dihydro-indeno[1,2-c]pyrazol-3-yl)-(3-fluoro-phenyl)-amine Compound 1 and its major metabolites, glucuronide A (Cpd 1-GluA) and glucuronide B (Cpd 1-GluB) (see Scheme A) in rat plasma was developed using phenacetin as an internal standard. [drawing 1]
(§4) The two glucuronide conjugates were prepared and purified to permit accurate quantification of the levels of intact parent Compound 1 versus Cpd 1-GluA and Cpd 1-GluB. Each standard curve for Compound 1, Cpd 1-GluA, and Cpd 1-GluB generated from rat plasma included ten concentration levels. […] The quantitative procedure for each sample included: sample preparation, HPLC separation and mass spectrometry detection.
(§5) The rat plasma was prepared using protein precipitation techniques. Reference standards and quality control samples in rat plasma for Compound 1 were transferred to a 96 deep-well plate. The precipitation solution contained 100 ng/ml of internal standard in acetonitrile. 300 μl of precipitation solution were added to 100 μl of each standard, quality control and plasma sample. Samples were vortexed for 10 mins, then centrifuged at 4500 RPM for 10 mins. 10 μl of each sample were injected for LC/MS/MS analysis.
(§6) The HPLC column chosen for the bioanalysis was purchased from Thermo Electron (Hypersil BetaBasic C18, 5 cm×2.1 mm). The eluting solvents were composed of Solvent A: 0.1% formic acid in H2O and Solvent B: 0.1% formic acid in acetonitrile. A step gradient was used and flow rate was 300 μl/min. The total run time was 3.2 mins. Solvent B was increased from 35% at 0 min to 75% at 2.1 mins and decreased back to 35% at 2.2 mins. The retention times for Compound 1, phenacetin, Cpd 1-GluA and Cpd 1-GluB were 1.1 min, 0.9 min, 1.3 min, and 1.6 min, respectively.
API3000 with a Turbo Ionspray interface from Applied Biosystems was used for the detection of Compound 1, the internal standard and major metabolites. Electrospray ionization was performed in the positive ion mode heated nebulizer with a temperature of 300° C. LC/MS/MS chromatograms were acquired in MRM (multiple reaction mode). The MRM transitions for Compound 1, the internal standard, Cpd 1-GluA and Cpd 1-GluB were from 326.3 to 190.6, 181.1 to 110.3, 502.2 to 368.3 and 502.2 to 326.4, respectively.
Pharmacokinetic analysis of the plasma concentration data was performed to determine the maximum plasma concentration (Cmax) for the oral dose, and the concentration at zero time (C0; Compound 1 only) by the extrapolation of drug concentrations back to the time of i.v. dosing, the time to maximum plasma concentration (Tmax) following the oral dose, area under the plasma concentration vs. time curve (AUC), terminal half-life (t1/2), plasma clearance (CL/F; Compound 1 only), and volume of distribution at steady state (Vdss; Compound 1 only) for the i.v. dose, using the WinNonlin (Version 3.1, Pharsight, Palo Alto, Calif.) validated computer program.

[2] = Oral gavage pharmacokinetics, jugular and portal vein sampling, first pass metabolism; assay type: in vivo, rat; settings: for AUC: po, 75 mg/kg; for AUC / concentration at 0 h / concentration at 0.08 h / concentration at 0.25 h / concentration at 0.33 h / concentration at 0.5 h / concentration at 0.67 h / concentration at 1 h / concentration at 1.25 h / concentration at 1.5 h / concentration at 2 h / concentration at 3 h / concentration at 4 h / concentration at 6 h / concentration at 12 h / concentration at 24 h / Cmax: rats N=4; for Cmax: read-out: Cmax average ± standard deviation
Description: as §1
For the oral gavage dosing, Compound 1 was prepared in neat PEG-400. For the intraduodenal and intracolonic dosing solutions, Compound 1 was added to neat Tween 80, the mixture was sonicated for thirty minutes at 45° C. until Compound 1 was completely dissolved and then deionized (DI) water was added to form a solution consisting of 20% Tween 80 and 80% DI water by weight.
as §2, §3, §4, §5, §6
API3000 with a Turbo Ionspray interface from Applied Biosystems was used for the detection of Compound 1, the internal standard and major metabolites. Electrospray ionization was performed in the positive ion mode heated nebulizer with a temperature of 300° C. LC/MS/MS chromatograms were acquired in MRM (multiple reaction mode). The MRM transitions for Compound 1, the internal standard, Cpd 1-GluA and Cpd 1-GluB were from 326.3 to 190.6, 181.1 to 110.3, 502.2 to 368.3 and 502.2 to 326.4, respectively. […]

[3] = male, Sprague Dawley, rat, plasma (jugular vein sample), Compound 1 75 mg/kg oral gavage, jugular sample
[4] = male, Sprague Dawley, rat, plasma (portal vein sample), Compound 1 75 mg/kg oral gavage, portal sample
[5] = male, Sprague Dawley, rat, portal vein plasma, Compound 1 75 mg/kg oral gavage, portal sample

COc1cc2c(cc1OC)-c1n[nH]c(Nc3cccc(F)c3)c1C2 [Compound 1, (6,7-dimethoxy-2,4-dihydro-indeno[1,2-c]pyrazol-3-yl)-(3-fluoro-phenyl)-amine]
Plasma level of Compound 1 relative to level of the metabolites ([1]; IV administration): 2%
AUC ([1]; Sprague Dawley, rat, plasma, male rats N=4, Compound 1 2 mg/kg IV, read-out: AUC average ± standard deviation): 345 ± 42 ng·h/mL
C0 ([1]; Sprague Dawley, rat, plasma, male rats N=4, Compound 1 2 mg/kg IV, read-out: C0 (concentration at zero time, by extrapolation)): 783 ng/mL
Cmax ([1]; Sprague Dawley, rat, plasma, male rats N=4, Compound 1 2 mg/kg IV, read-out: Cmax average ± standard deviation): 783 ± 233 ng/mL
concentration at 0.08 h ([1]; Sprague Dawley, rat, plasma, male rats N=4, Compound 1 2 mg/kg IV, retro orbital sinus, 0.08 hrs): 610 ng/mL
concentration at 0.33 h ([1]; Sprague Dawley, rat, plasma, male rats N=4, Compound 1 2 mg/kg IV, retro orbital sinus, 0.33 hrs): 286 ng/mL
concentration at 1 h ([1]; Sprague Dawley, rat, plasma, male rats N=4, Compound 1 2 mg/kg IV, retro orbital sinus, 1 hr): 71.3 ng/mL
concentration at 2 h ([1]; Sprague Dawley, rat, plasma, male rats N=4, Compound 1 2 mg/kg IV, retro orbital sinus, 2 hrs): 16.3 ng/mL
concentration at 4 h ([1]; Sprague Dawley, rat, plasma, male rats N=4, Compound 1 2 mg/kg IV, retro orbital sinus, 4 hrs): 1.2 ng/mL
concentration at 8 h ([1]; Sprague Dawley, rat, plasma, male rats N=4, Compound 1 2 mg/kg IV, retro orbital sinus, 8 hrs): 0 ng/mL
concentration at 24 h ([1]; Sprague Dawley, rat, plasma, male rats N=4, Compound 1 2 mg/kg IV, retro orbital sinus, 24 hrs): 0 ng/mL
Local absorption ratio (Fa) ([2]; Compound 1 75 mg/kg oral, Equation (2)): 48±18%
Hepatic recovery ratio (Fh) ([2]; Equation (3)): 40%
Extent of first pass metabolism ([2]; gut): 52%
Extent of first pass metabolism ([2]; liver): 60%
AUC ([2]; male, Sprague Dawley, rat, plasma (jugular vein sample), Compound 1 75 mg/kg oral gavage, jugular sample, read-out: AUC average ± standard deviation 0 to 24 hours): 2340 ng·h/mL
AUC ([2]; male, Sprague Dawley, rat, plasma (jugular vein sample), Compound 1 75 mg/kg oral gavage, jugular sample, read-out: AUC average ± standard deviation 0 to infinite hours): 2410 ng·h/mL
concentration at 0 h [2, 3]: 6.7 ng/mL
concentration at 0.08 h [2, 3]: 447 ng/mL
concentration at 0.25 h [2, 3]: 2120 ng/mL
concentration at 0.33 h [2, 3]: 1770 ng/mL
concentration at 0.5 h [2, 3]: 1220 ng/mL
concentration at 0.67 h [2, 3]: 626 ng/mL
concentration at 1 h [2, 3]: 442 ng/mL
concentration at 1.25 h [2, 3]: 465 ng/mL
concentration at 1.5 h [2, 3]: 409 ng/mL
concentration at 2 h [2, 3]: 378 ng/mL
concentration at 3 h [2, 3]: 127 ng/mL
concentration at 4 h [2, 3]: 61.3 ng/mL
concentration at 6 h [2, 3]: 51.1 ng/mL
concentration at 12 h [2, 3]: 22.8 ng/mL
concentration at 24 h [2, 3]: 7.7 ng/mL
Cmax [2, 3]: 2120 ng/mL
concentration at 0.67 h [2, 4]: 2300 ng/mL
concentration at 1 h [2, 4]: 346 ng/mL
concentration at 1.25 h [2, 4]: 972 ng/mL
concentration at 1.5 h [2, 4]: 465 ng/mL
concentration at 2 h [2, 4]: 1880 ng/mL
concentration at 3 h [2, 4]: 336 ng/mL
concentration at 4 h [2, 4]: 398 ng/mL
concentration at 6 h [2, 4]: 1010 ng/mL
concentration at 12 h [2, 4]: 250 ng/mL
bioavailability ([2]; male, Sprague Dawley, rat, plasma, Compound 1 75 mg/kg oral, read-out: Systemic oral bioavailability): 19 ± 5%
Tmax ([2]; male, Sprague Dawley, rat, plasma, rats, Compound 1 75 mg/kg oral gavage): 15 min
AUC ([2]; male, Sprague Dawley, rat, portal vein plasma, Compound 1 75 mg/kg oral gavage, portal sample, read-out: AUC average ± standard deviation 0 to 24 hours): 11900 ng·h/mL
AUC ([2]; male, Sprague Dawley, rat, portal vein plasma, Compound 1 75 mg/kg oral gavage, portal sample, read-out: AUC average ± standard deviation 0 to infinite hours): 12500 ng·h/mL
concentration at 0 h [2, 5]: 2.4 ng/mL
concentration at 0.08 h [2, 5]: 7520 ng/mL
concentration at 0.25 h [2, 5]: 4250 ng/mL
concentration at 0.33 h [2, 5]: 3880 ng/mL
concentration at 0.5 h [2, 5]: 873 ng/mL
concentration at 24 h [2, 5]: 224 ng/mL
Cmax [2, 5]: 8690 ng/mL
Plasma level of Compound 1 relative to level of the metabolites ([2]; oral administration): 6%

— US20080031866A1, “METHOD FOR MODULATING THE PHARMACOKINETICS AND METABOLISM OF A THERAPEUTIC AGENT” (priority 2006, published 2008)
